According to PubChem BioAssay (NCI):
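All cell lines were grown in 96-well plates and treated with compound for 48 hours. Abbreviation: GI50, concentration required for 50% inhibition of growth. TGI: total growth inhibition.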

How the values were obtained:
Assay in all cases: NCI tumour cell line growth inhibition, 48 h
MDA-MB-468 breast = tested on: MDA-MB-468 breast
BT-549 breast = tested on: BT-549 breast
CAKI-1 renal = tested on: CAKI-1 renal
OVCAR-5 ovarian = tested on: OVCAR-5 ovarian
786-0 renal = tested on: 786-0 renal
HL-60(TB) leukemia = tested on: HL-60(TB) leukemia
SK-OV-3 ovarian = tested on: SK-OV-3 ovarian
NCI-H226 lung = tested on: NCI-H226 lung
TK-10 renal = tested on: TK-10 renal
A498 renal = tested on: A498 renal
MALME-3M melanoma = tested on: MALME-3M melanoma
K-562 leukemia = tested on: K-562 leukemia
SNB-19 CNS = tested on: SNB-19 CNS
LOX IMVI melanoma = tested on: LOX IMVI melanoma
SR leukemia = tested on: SR leukemia
T-47D breast = tested on: T-47D breast
SK-MEL-28 melanoma = tested on: SK-MEL-28 melanoma
HCT-116 colon = tested on: HCT-116 colon
NCI-H522 lung = tested on: NCI-H522 lung
KM12 colon = tested on: KM12 colon
HS 578T breast = tested on: HS 578T breast
EKVX NSCLC = tested on: EKVX NSCLC
MOLT-4 leukemia = tested on: MOLT-4 leukemia
HCC-2998 colon = tested on: HCC-2998 colon
SF-539 CNS = tested on: SF-539 CNS
CCRF-CEM leukemia = tested on: CCRF-CEM leukemia
UACC-62 melanoma = tested on: UACC-62 melanoma
SF-295 CNS = tested on: SF-295 CNS
UACC-257 melanoma = tested on: UACC-257 melanoma
NCI-H23 lung = tested on: NCI-H23 lung
SW-620 colon = tested on: SW-620 colon
RXF 393 renal = tested on: RXF 393 renal
A549 NSCLC = tested on: A549 NSCLC
MCF7 breast = tested on: MCF7 breast
OVCAR-4 ovarian = tested on: OVCAR-4 ovarian
HOP-62 NSCLC = tested on: HOP-62 NSCLC
OVCAR-8 ovarian = tested on: OVCAR-8 ovarian
OVCAR-3 ovarian = tested on: OVCAR-3 ovarian
IGROV1 ovarian = tested on: IGROV1 ovarian
RPMI-8226 leukemia = tested on: RPMI-8226 leukemia
HOP-92 NSCLC = tested on: HOP-92 NSCLC
SK-MEL-5 melanoma = tested on: SK-MEL-5 melanoma
MDA-MB-435 = tested on: MDA-MB-435
HT29 colon = tested on: HT29 colon
SNB-75 CNS = tested on: SNB-75 CNS
HCT-15 colon = tested on: HCT-15 colon
U251 CNS = tested on: U251 CNS
COLO 205 colon = tested on: COLO 205 colon
ACHN renal = tested on: ACHN renal
M14 melanoma = tested on: M14 melanoma
SN12C renal = tested on: SN12C renal
DU-145 prostate = tested on: DU-145 prostate
MDA-MB-231 breast = tested on: MDA-MB-231 breast
SF-268 CNS = tested on: SF-268 CNS
PC-3 prostate = tested on: PC-3 prostate
NCI-H460 lung = tested on: NCI-H460 lung
UO-31 renal = tested on: UO-31 renal

CC1(C)CC[C@]2(C(=O)Nc3ccc(Br)cc3)CC[C@]3(C)C(=CCC4[C@@]5(C)C[C@@H](O)[C@H](O)[C@@](C)(CO)C5CC[C@]43C)C2C1 (some centres undefined)
GI50 (MDA-MB-468 breast): 15 µM
TGI (MDA-MB-468 breast): 29.4 µM
GI50 (BT-549 breast): 16.4 µM
TGI (BT-549 breast): 33.2 µM
GI50 (CAKI-1 renal): 12.6 µM
TGI (CAKI-1 renal): 40.8 µM
GI50 (OVCAR-5 ovarian): 13.2 µM
TGI (OVCAR-5 ovarian): 27.2 µM
GI50 (786-0 renal): 16.7 µM
TGI (786-0 renal): 31.5 µM
GI50 (HL-60(TB) leukemia): 18.2 µM
TGI (HL-60(TB) leukemia): 50.7 µM
GI50 (SK-OV-3 ovarian): 16.5 µM
TGI (SK-OV-3 ovarian): 38.6 µM
GI50 (NCI-H226 lung): 16.8 µM
TGI (NCI-H226 lung): 34.2 µM
GI50 (TK-10 renal): 19.8 µM
TGI (TK-10 renal): 49.9 µM
GI50 (A498 renal): 19 µM
TGI (A498 renal): 34.6 µM
GI50 (MALME-3M melanoma): 16.1 µM
TGI (MALME-3M melanoma): 30.4 µM
GI50 (K-562 leukemia): 23.1 µM
TGI (K-562 leukemia): > 100 µM
GI50 (SNB-19 CNS): 25.8 µM
TGI (SNB-19 CNS): > 100 µM
GI50 (LOX IMVI melanoma): 17.8 µM
TGI (LOX IMVI melanoma): 33 µM
GI50 (SR leukemia): 19.1 µM
TGI (SR leukemia): > 100 µM
GI50 (T-47D breast): 13.4 µM
TGI (T-47D breast): 30.4 µM
GI50 (SK-MEL-28 melanoma): 16.1 µM
TGI (SK-MEL-28 melanoma): 35.8 µM
GI50 (HCT-116 colon): 13.5 µM
TGI (HCT-116 colon): 26.9 µM
GI50 (NCI-H522 lung): 17.1 µM
TGI (NCI-H522 lung): 34.6 µM
GI50 (KM12 colon): 18.1 µM
TGI (KM12 colon): 38.1 µM
GI50 (HS 578T breast): 20.1 µM
TGI (HS 578T breast): 63.5 µM
GI50 (EKVX NSCLC): 16.6 µM
TGI (EKVX NSCLC): 41.6 µM
GI50 (MOLT-4 leukemia): 13.2 µM
TGI (MOLT-4 leukemia): 50 µM
GI50 (HCC-2998 colon): 16.2 µM
TGI (HCC-2998 colon): 31 µM
GI50 (SF-539 CNS): 15.9 µM
TGI (SF-539 CNS): 30 µM
GI50 (CCRF-CEM leukemia): 23.2 µM
TGI (CCRF-CEM leukemia): 75.9 µM
GI50 (UACC-62 melanoma): 12 µM
TGI (UACC-62 melanoma): 25.2 µM
GI50 (SF-295 CNS): 15.8 µM
TGI (SF-295 CNS): 30.6 µM
GI50 (UACC-257 melanoma): 20.2 µM
TGI (UACC-257 melanoma): 56.1 µM
GI50 (NCI-H23 lung): 17.1 µM
TGI (NCI-H23 lung): 33.6 µM
GI50 (SW-620 colon): 25.7 µM
TGI (SW-620 colon): > 100 µM
GI50 (RXF 393 renal): 12.6 µM
TGI (RXF 393 renal): 25.6 µM
GI50 (A549 NSCLC): 30.5 µM
TGI (A549 NSCLC): > 100 µM
GI50 (MCF7 breast): 14.9 µM
TGI (MCF7 breast): 34.9 µM
GI50 (OVCAR-4 ovarian): 15.1 µM
TGI (OVCAR-4 ovarian): 35.8 µM
GI50 (HOP-62 NSCLC): 15 µM
TGI (HOP-62 NSCLC): 31.8 µM
GI50 (OVCAR-8 ovarian): 24 µM
TGI (OVCAR-8 ovarian): 73.7 µM
GI50 (OVCAR-3 ovarian): 17.1 µM
TGI (OVCAR-3 ovarian): 34 µM
GI50 (IGROV1 ovarian): 17.1 µM
TGI (IGROV1 ovarian): 37.7 µM
GI50 (RPMI-8226 leukemia): 19.5 µM
TGI (RPMI-8226 leukemia): 72.3 µM
GI50 (HOP-92 NSCLC): 14.5 µM
TGI (HOP-92 NSCLC): 31.6 µM
GI50 (SK-MEL-5 melanoma): 15.7 µM
TGI (SK-MEL-5 melanoma): 29.1 µM
GI50 (MDA-MB-435): 15.9 µM
TGI (MDA-MB-435): 31.4 µM
GI50 (HT29 colon): 12.9 µM
TGI (HT29 colon): 26.7 µM
GI50 (SNB-75 CNS): 14.5 µM
TGI (SNB-75 CNS): 60.7 µM
GI50 (HCT-15 colon): 14.6 µM
TGI (HCT-15 colon): 29 µM
GI50 (U251 CNS): 16.6 µM
TGI (U251 CNS): 33.5 µM
GI50 (COLO 205 colon): 15.2 µM
TGI (COLO 205 colon): 32.8 µM
GI50 (ACHN renal): 14.6 µM
TGI (ACHN renal): 28.2 µM
GI50 (M14 melanoma): 17.4 µM
TGI (M14 melanoma): 40.8 µM
GI50 (SN12C renal): 16.6 µM
TGI (SN12C renal): 31.8 µM
GI50 (DU-145 prostate): 26.7 µM
TGI (DU-145 prostate): 81 µM
GI50 (MDA-MB-231 breast): 15.3 µM
TGI (MDA-MB-231 breast): 30 µM
GI50 (SF-268 CNS): 20.9 µM
TGI (SF-268 CNS): 71.9 µM
GI50 (PC-3 prostate): 14.5 µM
TGI (PC-3 prostate): 40.8 µM
GI50 (NCI-H460 lung): 17.5 µM
TGI (NCI-H460 lung): 38.3 µM
GI50 (UO-31 renal): 13.5 µM
TGI (UO-31 renal): 33.4 µM
